Laboratory results from patent US20130345392A1, “EDN3-LIKE PEPTIDES AND USES THEREOF” (Pfizer Inc, priority 2011, published 2013).
Entries after “also recorded” stand apart in the source; their conditions may differ. Bridges are numbered along the chain shown (N, C = ends). Where no end group is shown, it is not given here.

Legend:
[1] = tested on: GLUTag cells; conditions: GLUTag cells
[2] = tested on: INS1 cells; test: Glucose-stimulated insulin release from INS1 cells; assay type: cell-based; conditions: 10 μM (data not shown)
[3] = target: T1, human endothelin ETA receptor (Homo sapiens, UniProt P25101); test: Radioligand binding, human endothelin ETA receptor in transfected CHO cell membranes; conditions: tested at a concentration of up to 3 μM (p>0.05)
T1 construct: expressed in transfected cells; host or cells: CHO cells
T1 sequence (P25101 21-427): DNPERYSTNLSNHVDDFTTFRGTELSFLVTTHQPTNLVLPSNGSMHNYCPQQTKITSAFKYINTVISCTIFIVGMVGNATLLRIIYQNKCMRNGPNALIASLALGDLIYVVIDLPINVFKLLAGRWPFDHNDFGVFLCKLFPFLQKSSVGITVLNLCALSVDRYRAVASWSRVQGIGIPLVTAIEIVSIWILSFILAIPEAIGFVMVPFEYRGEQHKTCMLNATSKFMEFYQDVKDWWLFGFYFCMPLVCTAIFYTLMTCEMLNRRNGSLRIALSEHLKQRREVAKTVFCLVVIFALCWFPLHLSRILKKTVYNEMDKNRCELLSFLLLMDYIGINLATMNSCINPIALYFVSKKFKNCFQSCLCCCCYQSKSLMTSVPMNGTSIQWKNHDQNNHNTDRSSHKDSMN
Method: To evaluate the affinity of EDN3 97-140 for the agonist site of the human endothelin ETA receptor, radioligand binding with CHO cells transfected with the ETA receptor was used. […] Following incubation, the samples are filtered rapidly under vacuum through glass fiber filters (GF/B, Packard) presoaked with 0.1% BSA and rinsed several times with an ice-cold buffer containing 50 mM Tris-HCl and 150 mM NaCl using a 96-sample cell harvester (Unifilter, Packard). Filters were dried and then counted for radioactivity in a scintillation counter (Topcount, Packard) using a scintillation cocktail (Microscint 0, Packard). Results are expressed as a percent inhibition of the control radioligand specific binding.

[4] = tested on: C57BL6J male mice; test: Indirect calorimetry and telemetry in mice after injection into the preoptic area; assay type: in vivo, mouse; conditions: 2.5 nmol by direct injection into the POA
Method: C57BL6J male mice (3-4 months old, 25-30 g, 6 mice per group) were purchased from Harlan. […] Energy expenditure measures (VO2, VCO2 and heat formation ((3.815+1.232*RER)*VO2 (in liters)) were corrected for estimated effective metabolic mass per Kleiber's power function (Kleiber, 1947). Mice undergoing indirect calorimetry were acclimated to the respiratory chambers for 3-4 days before the onset of study. Data were recorded under ambient room temperature clamped at 25° C., beginning from the onset of the light cycle (12:12 hour light-dark cycle; lights on at 6:00 a.m.) for 3 days. Treatments were administered directly to the POA via an implanted cannula (anterior from bregma: 0.3 mm, midline, ventral: 3.8 mm, cannula 26 GA, 10 mm length) using an injector (33 GA, protruding 0.4 mm beyond the tip of the cannula, total length 10.4 mm) connected to plastic tubing and a microsyringe (10 μL) in a volume of 0.5 μL over a period of 5 minutes to allow diffusion. […]

[5] = tested on: ob/ob mice; test: Glucose tolerance (IPGTT) in ob/ob mice; assay type: in vivo, mouse; conditions: for reduction in glucose: overnight fast, 0.6 mg/kg glucose challenge i.p., mean±SEM n=8
Method: DIO mice fed on a high fat diet for 14 weeks and ob/ob mice were purchased from Jackson Labs. Ob/Ob mice and DIO mice used in all studies were used at 7 and 18 weeks old, respectively. After an overnight fast, ob/ob and DIO mice were injected with vehicle (20 mM Na acetate/140 mM NaCl) or EDN3 97-140 (0.1, 1 or 10 mg/kg i.p.) followed by a […] (i.p.) or 2 g/kg (i.p.) D-glucose challenge in ob/ob and DIO mice respectively. Plasma glucose levels were determined from mouse tail vein bleeds at 0, 15, 30, 60, and 120 minutes after compound injection and measured using an automatic glucometer (Alpha-Trak). To determine the acute insulin release, plasma insulin levels were measured by using an ELISA kit with mouse insulin as a standard (Meso Scale Discovery). Results were expressed as percentages of vehicle concentrations and statistical significance determined by 2-way ANOVA repeated measures.

[6] = tested on: 3T3L1 adipocyte; test: 3T3L1 adipocyte basal glucose uptake; assay type: cell-based; conditions: 10 μM (data not shown)

Question: With “CTCFTYKDKECVYYCHLDIIWINTPEQTVPYGLSNYRESLRGKR-NH2 (disulfide 1-15, 3-11) [EDN3 97-140]” as the substance, how does the “stimulated GLP-1 secretion” value ([1]; 1 μM, vehicle pre-treatment) read?
Answer: 327±59 % of vehicle

Question: And the “GLP-1 secretion from GLUTag cells, result in words” value ([1]; endothelin-3 at highest concentration 10 μM)?
Answer: most potent peptide tested

Question: And the EC50 ([1]; read-out: EC50, GLP-1 release GLUTag assay, 15 mM glucose)?
Answer: 369 nM

Question: What about the “modulation of glucose-stimulated insulin release from INS1 cells” value [2] of the same substance?
Answer: failed to modulate

Question: What about the “binding to ETA receptor” value [3] of the same substance?
Answer: failed to bind

Question: What about the locomotor activity [4] of the same substance?
Answer: transient spike of increased locomotor activity; also recorded: transient increase in locomotor activity

Question: What about the reduction in glucose ([5]; 1 mg/kg i.p. single bolus) of the same substance?
Answer: 35.1±13%

Question: And the reduction in glucose ([5]; 10 mg/kg i.p. single bolus)?
Answer: 31.3±6.9%

Question: What about the “glucose excursion curve in response to an IPGTT” value ([5]; acute peripheral administration 0.1, 1 or 10 mg/kg i.p.) of the same substance?
Answer: decreased

Question: What about the “insulin secretion during IPGTT” value ([5]; i.p., trend towards an increase at 30 minutes at 10 mg/kg (p>0.05), 10 mg/kg) of the same substance?
Answer: not statistically significant; also recorded: no statistically significant effect on insulin

Question: And the “effect on 3T3L1 adipocyte basal glucose uptake” value [6]?
Answer: no effect
